According to US10801035B2, “Plants having increased tolerance to herbicides” (BASF SE, priority 2011, dated 2020):

Assays:
Wild type soybean plants = assay: Greenhouse herbicide spray test, non-transformed soybean cuttings; type: in vivo, Glycine max; settings: Wild type (no transgene), two weeks after herbicide treatment
Method: Transgenic plants expressing heterologous HPPD or HST enzymes are tested for tolerance against coumarone-derivative herbicides in greenhouse experiments.
For post emergence treatment, the test plants are first grown to a height of 3 to 15 cm, depending on the plant habit, and only then treated with the herbicides. For this purpose, the test plants are either sown directly and grown in the same containers, or they are first grown separately and transplanted into the test containers a few days prior to treatment.
For testing of T0 plants, cuttings can be used. In the case of soybean plants, an optimal shoot for cutting is about 7.5 to 10 cm tall, with at least two nodes present. Each cutting is taken from the original transformant (mother plant) and dipped into rooting hormone powder (indole-3-butyric acid, IBA). The cutting is then placed in oasis wedges inside a bio-dome. Wild type cuttings are also taken simultaneously to serve as controls. The cuttings are kept in the biodome for 5-7 days and then transplanted to pots and then acclimated in the growth chamber for two more days. Subsequently, the cuttings are transferred to the greenhouse, acclimated for approximately 4 days, and then subjected to spray tests as indicated.
Depending on the species, the plants are kept at 10-25° C. or 20-35° C. The test period extends over 3 weeks. During this time, the plants are tended and their response to the individual treatments is evaluated. Herbicide injury evaluations are taken at 2 and 3 weeks after treatment. Plant injury is rated on a scale of 0 to 9, 0 being no injury and 9 being complete death. Tolerance to coumarone-derivative herbicides can also be assessed in Arabidopsis. In this case transgenic Arabidopsis thaliana plants are assayed for improved tolerance to coumarone-derivative herbicides in 48-well plates. […] Seven to ten days after seeding growth inhibition is evaluated by comparison to wild type plants. Tolerance factor is calculated by dividing the plant growth IC50 value of transgenic plants containing a HPPD and/or HST sequence by that of wildtype plants. […]

[1] = target: T1, Arabidopsis HPPD variant M335H (Arabidopsis thaliana, UniProt P93836, M335H); assay: HPPD activity assay, Arabidopsis HPPD mutant M335H; type: biochemical; settings: normalized on wildtype
T1 construct: His6 (N); made in house; host or cells: E. coli BL21 (DE3)
T1 sequence (P93836 whole entry M335H): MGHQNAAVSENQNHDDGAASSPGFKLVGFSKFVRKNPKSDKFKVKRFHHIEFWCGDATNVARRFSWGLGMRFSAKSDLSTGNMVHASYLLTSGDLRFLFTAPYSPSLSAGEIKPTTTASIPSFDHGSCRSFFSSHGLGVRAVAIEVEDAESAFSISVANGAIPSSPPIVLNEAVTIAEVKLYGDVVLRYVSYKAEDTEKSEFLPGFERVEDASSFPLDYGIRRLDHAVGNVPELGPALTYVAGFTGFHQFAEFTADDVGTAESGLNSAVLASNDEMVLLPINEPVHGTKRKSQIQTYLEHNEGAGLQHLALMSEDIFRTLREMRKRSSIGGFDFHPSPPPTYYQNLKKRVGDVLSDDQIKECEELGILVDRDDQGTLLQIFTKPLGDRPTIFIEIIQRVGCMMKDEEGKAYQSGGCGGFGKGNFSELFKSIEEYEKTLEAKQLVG
Method: HPPD produces homogentisic acid and CO2 from 4-hydroxyphenylpyruvate (4-HPP) and O2. The activity assay for HPPD is based on the analysis of homogentisic acid by reversed phase HPLC.
The assay mixture can contain 150 mM potassium phosphate buffer pH 7.0, 50 mM L-ascorbic acid, 1 μM FeSO4 and 7 μg of purified enzyme in a total volume of 1 ml. Inhibitors are dissolved in DMSO (dimethylsulfoxide) to a concentration of 20 mM or 0.5 mM, respectively. From this stock solution serial five-fold dilutions are prepared in DMSO, which are used in the assay. The respective inhibitor solution accounts for 1% of the assay volume. Thus, final inhibitor concentrations range from 200 μM to 2.5 nM or from 5 μM to 63 pM, respectively. After a preincubation of 30 min the reaction is started by adding 4-HPP to a final concentration of 0.1 mM. […]
Inhibitors are dissolved in DMSO (dimethylsulfoxide) to a concentration of 0.5 mM. […] IC50 values are calculated using non-linear regression.
Purified, mutant HPPD enzymes are obtained by the methods described above. […] Apparent michaelis constants (Km) and maximal reaction velocities (Vmax) are calculated by non-linear regression with the software GraphPad Prism 5 (GraphPad Software, La Jolla, USA) using a substrate inhibition model. […] Weighted means (by standard error) of Km and […] values are calculated from at least three independent experiments. […]

| SMILES | Injury evaluation (Wild type soybean plants; dose 62 g/ha) | Injury evaluation (Wild type soybean plants; dose 125 g/ha) | Injury evaluation (Wild type soybean plants; dose 250 g/ha) | Normalized tolerance index (TI) [1] |
| --- | --- | --- | --- | --- |
| CC1=NOC(c2c(Cl)ccc(C3=C(O)c4ncccc4N(CC(F)F)S3(=O)=O)c2Cl)C1 (stereo not shown) [Inhibitor 1, 3-[2,4-dichloro-3-(3-methyl-4,5-dihydroisoxazol-5-yl)phenyl]-1-(2,2-difluoroethyl)-2,2-dioxo-pyrido[3,2-c]thiazin-4-ol] | 26 | 44 | 68 |  |
| O=S1(=O)C(c2c(Cl)cc(Cl)nc2Cl)=C(O)c2ncccc2N1CC(F)F [Inhibitor 2, 1-(2,2-difluoroethyl)-2,2-dioxo-3-(2,4,6-trichloro-3-pyridyl)pyrido[3,2-c]thiazin-4-ol] |  |  |  | 0.2 |
